Reference: PMC12461739, “Multi-targeted azacoumarin–cyanocinnamate hybrids induce G2/M arrest and apoptosis via tubulin, and COX-2/VEGFR modulation: insights from in vitro mechanistic basis and in vivo validation” (RSC Medicinal Chemistry, 2025)
Values joined by “and” are separate entries in the source; they are usually repeats but may differ in a detail not shown here. Equal entries are not always repeated.

Assays:
[1] = Hepatic oxidative stress markers (GSH, CAT, SOD, MDA)
Method: All animals were maintained under conventional laboratory conditions, including a controlled temperature of 22 ± 2 °C and a 12 hour light/dark photoperiod, with continuous access to standard pellet chow and water. On day 11, following the final treatment, ascitic fluid was collected from the peritoneal cavity using heparinized syringes for EAC cell viability and count analysis. Blood samples were collected under light ether anesthesia via the retro-orbital venous plexus and centrifuged at 3000 rpm for 10 minutes. The resulting serum was separated and stored at −20 °C for biochemical analysis. Additionally, liver and kidney tissues were excised from each animal for further evaluation. Each organ was divided into two parts: one portion was rinsed with ice-cold phosphate-buffered saline (PBS, pH 7.4) and stored at −20 °C for preparation of tissue homogenates used in biochemical assays. The second portion was fixed in 10% neutral buffered formalin for histopathological examination to assess tissue morphology and damage.[96,97]
Liver tissues were homogenized in an appropriate lysis buffer and centrifuged to obtain the supernatant. Samples were loaded into ELISA plates pre-coated with catalase-specific antibodies and incubated at 37 °C. After washing steps, a biotinylated detection antibody and horseradish peroxidase (HRP)-conjugated secondary antibody were sequentially added. The reaction was developed using a tetramethylbenzidine (TMB) substrate and stopped with sulfuric acid. Absorbance was measured at 450 nm using a microplate reader, and results were expressed as units per gram of tissue (U g^−1 tissue). All samples were run in triplicate, and data were reported as mean ± SD.
The assay employed a double-antibody sandwich ELISA technique, where wells are pre-coated with MDA-specific monoclonal antibodies. Liver tissue homogenate samples were added to the wells and incubated to allow specific antigen–antibody binding. After washing, a biotin-labeled polyclonal detection antibody was added, followed by an avidin–HRP conjugate. The enzymatic reaction was developed using a TMB substrate, yielding a colorimetric change proportional to the MDA concentration. The reaction was stopped with acid, and absorbance was measured at 450 nm using a microplate reader. Results were expressed as nanomole per gram of tissue (nmol g^−1 tissue). All measurements were performed in triplicate, and results are presented as mean ± SD.
The assay employs a sandwich ELISA technique in which GSH in the samples binds to monoclonal antibodies pre-coated on microplate wells. Following this, an HRP-conjugated detection antibody was added, and the plate was incubated at 37 °C for 1 hour. After several washing steps to remove unbound reagents, a TMB substrate solution was added, allowing the enzymatic colorimetric reaction to develop. The reaction was stopped with an acidic solution, and absorbance was measured at 450 nm using a microplate reader. The resulting color intensity was directly proportional to the GSH concentration in the sample, and results were expressed as picogram per gram of tissue (pg g^−1 tissue). All samples were assayed in triplicate, and results are reported as mean ± SD.
The assay employed a sandwich ELISA format, in which SOD present in the tissue homogenates binds to a specific monoclonal antibody pre-coated on microplate wells. After sample incubation at 37 °C for 60 minutes, an HRP-conjugated secondary antibody was added. Following thorough washing, the enzymatic reaction was initiated with a TMB substrate and stopped with an acidic solution, resulting in a measurable color change. Absorbance was recorded at 450 nm using a microplate reader, and results were expressed as units per gram of tissue (U g^−1 tissue). All samples were run in triplicate, and data were reported as mean ± SD.

MCF-10A cells = experiment: MTT cytotoxicity assay, MCF-10A; format: cell-based, human
Method: (§1) The cytotoxic effects of the synthesized compounds were evaluated using the MTT assay. […] Following incubation, cells were treated with serial dilutions of the test compounds prepared in DMSO. The final concentration of DMSO in all wells, including controls, was maintained below 0.5% v/v to avoid solvent-related cytotoxicity. Doxorubicin was used as a positive control for comparison of antiproliferative activity. Following 48 hours of treatment, the culture medium was gently removed, and each well received 20 μL of MTT reagent (5 mg mL^−1 in phosphate-buffered saline). The plates were incubated at 37 °C for 4 hours to facilitate the enzymatic reduction of MTT into formazan by metabolically active cells. After incubation, the solution was discarded, and 100 μL of dimethyl sulfoxide was added. The absorbance of each well was measured at 570 nm using a microplate spectrophotometer. Cell viability was determined by comparing absorbance values to those of the untreated controls and expressed as a percentage. GraphPad Prism software was used to plot dose–response curves and calculate IC50 values.

[2] = MTT cytotoxicity assay, MCF-10A; format: cell-based, human; settings: human, MCF-10A non-tumorigenic breast epithelial cells, MTT, 48 h treatment, non-tumorigenic breast epithelial cells; read-out: IC50, cytotoxicity toward MCF-10A
Method: as §1

[3] = Acute toxicity and lethal dose determination; format: in vivo, Swiss albino mice; settings: mice, i.p., 48 hour observation
Method: In the first phase, animals were injected with low doses (1, 1.5, 2, 2.5, 3, 3.5, 4, 6, 8, and 10 mg kg^−1) and observed for 24 hours. Since no mortality was observed, a second set of animals was treated with higher doses (15, 25, 50, 75, 100, and 200 mg kg^−1), with continuous monitoring for 48 hours post-injection. Control animals received sterile saline solution only. All mice were carefully observed for signs of toxicity, behavioral changes (e.g., grooming, feeding, and locomotion), and mortality. The maximum tolerated dose (LD0) was defined as the highest dose at which no mortality or significant toxic symptoms were observed, while the lethal dose (LD100) was identified as the dose at which all animals succumbed. These values were used to establish safe dosing limits for subsequent in vivo pharmacological and biochemical experiments.

COX-2 = molecular target: T1, COX-2 (Homo sapiens, UniProt P35354); experiment: COX-2 inhibitor screening (fluorometric); format: biochemical
T1 construct: purchased BioVision K547-100
T1 sequence (P35354 18-604): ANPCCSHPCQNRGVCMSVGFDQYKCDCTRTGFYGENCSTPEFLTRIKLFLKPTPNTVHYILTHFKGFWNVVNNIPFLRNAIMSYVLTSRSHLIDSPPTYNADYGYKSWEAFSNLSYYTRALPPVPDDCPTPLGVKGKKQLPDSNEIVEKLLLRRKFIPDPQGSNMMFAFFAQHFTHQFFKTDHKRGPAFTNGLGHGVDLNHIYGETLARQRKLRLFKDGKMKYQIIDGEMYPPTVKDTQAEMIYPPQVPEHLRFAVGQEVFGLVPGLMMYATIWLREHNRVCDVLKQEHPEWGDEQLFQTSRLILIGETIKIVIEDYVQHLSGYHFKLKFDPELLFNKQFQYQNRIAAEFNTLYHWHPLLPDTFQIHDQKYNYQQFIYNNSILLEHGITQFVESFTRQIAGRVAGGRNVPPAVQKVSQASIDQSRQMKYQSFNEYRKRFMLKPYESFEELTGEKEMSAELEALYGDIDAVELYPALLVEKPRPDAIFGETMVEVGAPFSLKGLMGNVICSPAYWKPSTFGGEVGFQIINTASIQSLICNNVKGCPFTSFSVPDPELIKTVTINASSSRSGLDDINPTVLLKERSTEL
Method: COX-1 and COX-2 enzymes were reconstituted in sterile water (110 μL) and kept on ice until use. Arachidonic acid was activated by mixing 5 μL with 5 μL of NaOH, followed by a 10-fold dilution with water and vortexing. A reaction mixture (80 μL per well) was prepared by combining 76 μL of assay buffer, 1 μL of COX probe, 2 μL of 200-fold diluted COX cofactor, and 1 μL of COX-1 or COX-2 enzyme. This mix was added to each well, followed by 10 μL of the prepared arachidonic acid/NaOH solution to initiate the reaction. Fluorescence was recorded at 25 °C using a microplate reader. The percent inhibition was determined by comparing the fluorescence increase in treated wells relative to the enzyme control. IC50 values were calculated from the concentration–response curves using GraphPad Prism.

[4] = tested on: Ehrlich ascites carcinoma (EAC) cells; experiment: EAC model: viable EAC cell count and ascitic tumor volume; settings: for total viable EAC cell count: 10 days
Method: To evaluate tumor burden in the experimental groups, ascitic fluid was collected from the peritoneal cavity using a sterile, graduated syringe. The volume of ascitic fluid was recorded for each animal. The collected fluid was then diluted with heparinized saline for viable cell counting. Cell viability and density were determined using the trypan blue exclusion method. A 0.4% (w/v) trypan blue solution was prepared by dissolving 0.4 g of dye in 100 mL of sterile distilled water and filtering it through a 0.22 μm membrane filter. Prior to counting, 10 μL of the ascitic cell suspension was mixed with an equal volume of trypan blue and incubated at room temperature for 2 minutes. Cells were loaded onto a hemocytometer (Thoma type, Germany) and examined under a light microscope at 40× magnification. Non-viable cells stained blue, whereas viable cells remained unstained. All measurements were performed in triplicate, and the results are expressed as mean ± SD.[93]
On day 1, all groups were injected i.p. with 2.5 × 10^6 viable EAC cells in 200 μL of sterile saline. Group 1 (EAC control) received EAC cells only and no further treatment. […] The compound was administered i.p. every other day (i.e., on days 2, 4, 6, 8, and 10), for a total of five doses over a 10 day treatment period. At the end of the experiment (day 11), ascitic fluid was collected from the peritoneal cavity of each animal. The number and viability of EAC cells were assessed using the trypan blue exclusion assay. Each experiment was performed in triplicate and independently replicated on at least three separate occasions. The results were presented as mean ± SD. Statistical comparisons between groups were conducted using GraphPad Prism, with p < 0.05 considered significant.[95]
On day 11, following the final treatment, ascitic fluid was collected from the peritoneal cavity using heparinized syringes for EAC cell viability and count analysis.

VEGFR-II = experiment: Serum VEGFR-II ELISA
Method: All animals were maintained under conventional laboratory conditions, including a controlled temperature of 22 ± 2 °C and a 12 hour light/dark photoperiod, with continuous access to standard pellet chow and water. On day 11, following the final treatment, ascitic fluid was collected from the peritoneal cavity using heparinized syringes for EAC cell viability and count analysis. Blood samples were collected under light ether anesthesia via the retro-orbital venous plexus and centrifuged at 3000 rpm for 10 minutes. The resulting serum was separated and stored at −20 °C for biochemical analysis.
Serum VEGFR-2 levels were quantified using a rat VEGFR-2 ELISA kit (Cusabio®, China; Catalog No. CSB-E07348r), based on a quantitative sandwich enzyme immunoassay format. Samples were added to 96-well plates pre-coated with a monoclonal antibody specific for VEGFR-2 and incubated to enable antigen binding. After washing to remove unbound material, a biotin-conjugated detection antibody was added, followed by an avidin–HRP complex. The enzymatic reaction was developed using TMB substrate and stopped with an acidic solution. Absorbance was measured at 450 nm using a microplate reader. The VEGFR-2 concentrations in the samples were calculated using a standard curve fitted with a four-parameter logistic (4-PL) regression model and expressed in nanograms per milliliter (ng mL^−1).

## CCOC(=O)/C(C#N)=C/c1ccc(Oc2c(C)c3cc(Br)c(O)c(Br)c3[nH]c2=O)cc1 [Compound 7, ethyl (E)-2-cyano-3-(4-((6,8-dibromo-7-hydroxy-4-methyl-2-oxo-1,2-dihydroquinolin-3-yl)oxy)phenyl)acrylate]
[1]; EAC + compound 7 (10 mg kg^−1 i.p.), EAC control 12.50 ± 0.55
  hepatic GSH: 34.76 ± 1.71 pg g^−1 tissue
[1]; EAC + compound 7, EAC control 9.85 ± 0.53
  hepatic SOD: 27.04 ± 0.70 U g^−1 tissue
[1]; EAC + compound 7, EAC control 11.71 ±1.42
  hepatic CAT: 23.12 ± 1.09 U g^−1 tissue
[1]; EAC + compound 7, EAC control 53.57 ± 9.6
  hepatic MDA: 17.04 ± 0.64 nmol g^−1 tissue
[1]; compound 7 control group, no EAC
  hepatic MDA: 10.77 ± 0.70 nmol g^−1 tissue
[1]; compound 7 control group, no EAC, untreated 61.4 ± 2.99
  hepatic GSH: 72.73 ± 1.37 pg g^−1 tissue
[1]; compound 7 control group, no EAC, untreated 65.23 ± 1.97
  hepatic CAT: 60.88 ± 2.66 U g^−1 tissue
[1]; compound 7 control group, no EAC, untreated 77.56 ± 4.02
  hepatic SOD: 77.05 ± 1.84 U g^−1 tissue
MCF-10A cells; MCF-10A vs MCF-7 / MDA-MB 231
  selectivity index toward breast cancer cells: 5.3 to 6.8
MCF-10A cells; MTT, 48 h treatment, non-tumorigenic breast epithelial cells, read-out: IC50, cytotoxicity toward MCF-10A
  IC50: 52.1 ± 1.76 µM
[2]
  IC50 at 48 h: 52 µM
[3]; Swiss albino, mouse, in vivo, ip, read-out: maximum tolerated dose (LD0)
  MTD at 48 h: 100 mg/kg
[3]
  approximate lethal dose (LD100): ~200 mg/kg
COX-2
  selectivity index (SI), COX-1/COX-2: 5.93
COX-2; read-out: IC50 toward COX-2
  IC50: 1.26 µM and 1.3 µM
[4]; 2.5 mg kg^−1, vs EAC control
  reduction in viable EAC cells: 53.27%
[4]; 2.5 mg kg^−1 i.p. every two days, EAC control 199.33 ± 4.15
  total viable EAC cell count: 93.15 ± 7.19 × 10^6 cells
[4]; 5 mg kg^−1, vs EAC control
  reduction in viable EAC cells: 65.41%
[4]; 5 mg kg^−1 i.p. every two days
  total viable EAC cell count: 68.95 ± 2.00 × 10^6 cells
[4]; 7.5 mg kg^−1, vs EAC control
  reduction in viable EAC cells: 72.36%
[4]; 7.5 mg kg^−1 i.p. every two days
  total viable EAC cell count: 55.10 ± 2.15 × 10^6 cells
[4]; 10 mg kg^−1, vs EAC control
  reduction in viable EAC cells: 85.92%
[4]; 10 mg kg^−1, vs untreated EAC group
  reduction of ascitic tumor volume: 45.25%
[4]; 10 mg kg^−1, untreated EAC group 5.68 ± 0.15 mL
  average ascitic tumor volume: 3.11 ± 0.45 mL
[4]; 10 mg kg^−1 i.p. every two days
  total viable EAC cell count: 28.06 ± 1.69 × 10^6 cells
[4]; 15 mg kg^−1, vs EAC control
  reduction in viable EAC cells: 85.96%
[4]; 15 mg kg^−1 i.p. every two days
  total viable EAC cell count: 27.98 ± 0.39 × 10^6 cells
VEGFR-II; EAC + compound 7 (10 mg kg^−1 i.p.), EAC control 85.61 ± 2.47
  serum VEGFR-II: 30.66 ± 1.31 ng/mL
VEGFR-II; compound 7-only control group, no EAC, untreated 18.23 ± 0.81
  serum VEGFR-II: 14.03 ± 0.45 ng/mL
